Data as given in PubChem BioAssay (NCI).
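1) Cells in 96-well plates. 2) Compound, 48 h, 5 concentrations. 3) Linear interpolation between surrounding doses. 4) Unreached endpoint = highest concentration. Definition used: TGI = concentration required for complete inhibition of growth.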

Columns and labels:
Experiment in all cases: NCI-60 cell line screen, 48 h
786-0 renal = system: 786-0 renal
A498 renal = system: A498 renal
ACHN renal = system: ACHN renal
CCRF-CEM leukemia = system: CCRF-CEM leukemia
HCC-2998 colon = system: HCC-2998 colon
HCT-116 colon = system: HCT-116 colon
HCT-15 colon = system: HCT-15 colon
HL-60(TB) leukemia = system: HL-60(TB) leukemia
HS 578T breast = system: HS 578T breast
IGROV1 ovarian = system: IGROV1 ovarian
K-562 leukemia = system: K-562 leukemia
M14 melanoma = system: M14 melanoma
MCF7 breast = system: MCF7 breast
MDA-MB-231 breast = system: MDA-MB-231 breast
NCI-H23 lung = system: NCI-H23 lung
NCI-H460 lung = system: NCI-H460 lung
NCI-H522 lung = system: NCI-H522 lung
OVCAR-3 ovarian = system: OVCAR-3 ovarian
OVCAR-4 ovarian = system: OVCAR-4 ovarian
OVCAR-8 ovarian = system: OVCAR-8 ovarian
RXF 393 renal = system: RXF 393 renal
SF-268 CNS = system: SF-268 CNS
SF-295 CNS = system: SF-295 CNS
SF-539 CNS = system: SF-539 CNS
SK-MEL-5 melanoma = system: SK-MEL-5 melanoma
SK-OV-3 ovarian = system: SK-OV-3 ovarian
SNB-19 CNS = system: SNB-19 CNS
SNB-75 CNS = system: SNB-75 CNS
SR leukemia = system: SR leukemia
TK-10 renal = system: TK-10 renal
U251 CNS = system: U251 CNS
UACC-257 melanoma = system: UACC-257 melanoma
A549 NSCLC = system: A549 NSCLC
BT-549 breast = system: BT-549 breast
CAKI-1 renal = system: CAKI-1 renal
COLO 205 colon = system: COLO 205 colon
DU-145 prostate = system: DU-145 prostate
EKVX NSCLC = system: EKVX NSCLC
HOP-92 NSCLC = system: HOP-92 NSCLC
HT29 colon = system: HT29 colon
KM12 colon = system: KM12 colon
LOX IMVI melanoma = system: LOX IMVI melanoma
MALME-3M melanoma = system: MALME-3M melanoma
MDA-MB-435 = system: MDA-MB-435
MOLT-4 leukemia = system: MOLT-4 leukemia
NCI-H226 lung = system: NCI-H226 lung
NCI/ADR-RES ovarian = system: NCI/ADR-RES ovarian
PC-3 prostate = system: PC-3 prostate
RPMI-8226 leukemia = system: RPMI-8226 leukemia
SK-MEL-2 melanoma = system: SK-MEL-2 melanoma
SK-MEL-28 melanoma = system: SK-MEL-28 melanoma
SN12C renal = system: SN12C renal
SW-620 colon = system: SW-620 colon
T-47D breast = system: T-47D breast
UACC-62 melanoma = system: UACC-62 melanoma
UO-31 renal = system: UO-31 renal

SMILES: COc1ccc2cc1Oc1ccc(cc1)C[C@@H]1c3cc(c(OC)cc3CCN1C)Oc1c(OC)c(OC)cc3c1[C@H](C2)N(C)CC3
- TGI (786-0 renal): 89.6 µM
- TGI (A498 renal): 42.5 µM
- TGI (ACHN renal): 28.5 µM
- TGI (CCRF-CEM leukemia): 51.8 µM
- TGI (HCC-2998 colon): 25.8 µM
- TGI (HCT-116 colon): > 100 µM
- TGI (HCT-15 colon): 25.1 µM
- TGI (HL-60(TB) leukemia): 30.8 µM
- TGI (HS 578T breast): 42.3 µM
- TGI (IGROV1 ovarian): 72.9 µM
- TGI (K-562 leukemia): 23 µM
- TGI (M14 melanoma): 37.1 µM
- TGI (MCF7 breast): 31 µM
- TGI (MDA-MB-231 breast): 29.9 µM
- TGI (NCI-H23 lung): 34.1 µM
- TGI (NCI-H460 lung): 29.7 µM
- TGI (NCI-H522 lung): 33.4 µM
- TGI (OVCAR-3 ovarian): > 100 µM
- TGI (OVCAR-4 ovarian): 55.6 µM
- TGI (OVCAR-8 ovarian): 35.6 µM
- TGI (RXF 393 renal): 13.7 µM
- TGI (SF-268 CNS): 60.8 µM
- TGI (SF-295 CNS): 34.2 µM
- TGI (SF-539 CNS): 23.6 µM
- TGI (SK-MEL-5 melanoma): 25.1 µM
- TGI (SK-OV-3 ovarian): > 100 µM
- TGI (SNB-19 CNS): 50 µM
- TGI (SNB-75 CNS): 27.3 µM
- TGI (SR leukemia): 9.91 µM
- TGI (TK-10 renal): 39.5 µM
- TGI (U251 CNS): > 100 µM
- TGI (UACC-257 melanoma): 28.9 µM

SMILES: COc1ccccc1C(=O)OCC1CCCN2CCCCC12 (stereo not drawn)
- TGI (786-0 renal): > 100 µM
- TGI (A498 renal): > 100 µM
- TGI (A549 NSCLC): > 100 µM
- TGI (ACHN renal): > 100 µM
- TGI (BT-549 breast): 54.6 µM
- TGI (CAKI-1 renal): > 100 µM
- TGI (CCRF-CEM leukemia): 46.1 µM
- TGI (COLO 205 colon): > 100 µM
- TGI (DU-145 prostate): > 100 µM
- TGI (EKVX NSCLC): > 100 µM
- TGI (HCC-2998 colon): 42.2 µM
- TGI (HCT-116 colon): > 100 µM
- TGI (HCT-15 colon): > 100 µM
- TGI (HL-60(TB) leukemia): 44.2 µM
- TGI (HOP-92 NSCLC): > 100 µM
- TGI (HS 578T breast): > 100 µM
- TGI (HT29 colon): 32.2 µM
- TGI (K-562 leukemia): > 100 µM
- TGI (KM12 colon): 36.6 µM
- TGI (LOX IMVI melanoma): 34.8 µM
- TGI (MALME-3M melanoma): > 100 µM
- TGI (MCF7 breast): > 100 µM
- TGI (MDA-MB-231 breast): 61.6 µM
- TGI (MDA-MB-435): > 100 µM
- TGI (MOLT-4 leukemia): > 100 µM
- TGI (NCI-H226 lung): > 100 µM
- TGI (NCI-H23 lung): > 100 µM
- TGI (NCI-H460 lung): 52 µM
- TGI (NCI/ADR-RES ovarian): > 100 µM
- TGI (OVCAR-4 ovarian): > 100 µM
- TGI (OVCAR-8 ovarian): 45.8 µM
- TGI (PC-3 prostate): > 100 µM
- TGI (RPMI-8226 leukemia): > 100 µM
- TGI (RXF 393 renal): 73.6 µM
- TGI (SF-268 CNS): > 100 µM
- TGI (SF-295 CNS): > 100 µM
- TGI (SF-539 CNS): > 100 µM
- TGI (SK-MEL-2 melanoma): > 100 µM
- TGI (SK-MEL-28 melanoma): 65.7 µM
- TGI (SK-MEL-5 melanoma): > 100 µM
- TGI (SK-OV-3 ovarian): > 100 µM
- TGI (SN12C renal): 96 µM
- TGI (SNB-19 CNS): > 100 µM
- TGI (SNB-75 CNS): 63.4 µM
- TGI (SW-620 colon): > 100 µM
- TGI (T-47D breast): 81.7 µM
- TGI (TK-10 renal): > 100 µM
- TGI (U251 CNS): 73.1 µM
- TGI (UACC-257 melanoma): > 100 µM
- TGI (UACC-62 melanoma): > 100 µM
- TGI (UO-31 renal): > 100 µM
